# According to patent publication US11504362B2, “Liquid dosage forms to treat cancer” (Exelixis, Inc., priority 2017, dated 2022):
# Structures can show the parent of a compound that is named as a salt.
# Assays:
# clinical [1] = conditions: in vivo
# Procedure: Pharmacokinetics: Serial blood, urine, and feces were collected at specified times following dosing.
# All samples collected for radioactivity analysis were analyzed for total radioactivity.
# Detailed reports of the bioanalytical methodologies and results accompany the clinical study report.
# The other minor metabolite in plasma, p-Fluoroaniline, was analyzed by Exelixis using a validated LC/MS/MS method.
# PK variables were computed using WinNonlin Professional, version 5.2.
# clinical [2] = conditions: in vivo; remark: listed apart in the source
# Procedure: Samples for 2 subjects were used for the investigation study. Therefore, only 6 subjects' PK profiles were determined using a radio-quantitation method.
"Plasma concentrations (clinical [1]; male, human) [ng/mL]",AUC0-24 (clinical [1]; human),AUC0-72 (clinical [1]; human),AUC0-inf (clinical [1]; human),AUC0-t (clinical [1]; human),t1/2 (clinical [1]; human) [h],kel (clinical [1]) [h⁻¹],AUC0-24 (clinical [2]; human) [h · ngEq/mL],AUC0-72 (clinical [2]; human) [h · ngEq/mL],AUC0-inf (clinical [2]; human) [h · ngEq/mL],AUC0-t (clinical [2]; human) [h · ngEq/mL],t1/2 (clinical [2]; human) [h],ke1 (clinical [2]) [h⁻¹],Tmax (clinical [2]; human) [h],Cmax (clinical [2]; human) [ngEq/mL],SMILES
< 2.0,,,,,,,,,,,,,,,"Nc1ccc(F)cc1 [p-Fluoroaniline, Para-fluoroaniline]"
,2030 ± 682 (34) h · ng/mL,5610 ± 1940 (35) h · ng/mL,10300 ± 3170 (31) h · ng/mL,10100 ± 3210 (32) h · ng/mL,89.2,0.00846,4300 ± 1460,10600 ± 3490,20800 ± 7640,13300 ± 8360,73.1,0.00976 ± 0.00212,,,COc1cc2c(Oc3ccc(NC(=O)C4(C(=O)Nc5ccc(F)cc5)CC4)cc3)cc[n+]([O-])c2cc1OC [XL184-N-Oxide]
,951 ± 377 (40) h · ng/mL,7530 ± 3200 (42) h · ng/mL,,99500 ± 34500 (35) h · ng/mL,,,2520 ± 1370,17400 ± 7000,,89000 ± 32000,,,~71.99,,COc1cc2nccc(Oc3ccc(NC(=O)C4(C(=O)O)CC4)cc3)c2cc1OS(=O)(=O)O [6-Demethyl Half-Dimer Sulfate]
,1080 ± 341 (32) h · ng/mL,3120 ± 976 (31) h · ng/mL,6770 ± 1700 (25) h · ng/mL,6540 ± 1680 (26) h · ng/mL,91.8,0.00807,3610 ± 1350,8680 ± 3980,16400 ± 1770,11100 ± 5890,57.9 ± 28.4,0.0136 ± 0.00672,1.49,210 ± 73,COc1cc2nccc(Oc3ccc(NC(=O)C4(C(=O)O)CC4)cc3)c2cc1OC [XL184-Half-Dimer]
